Reference: PMC5290327, “SC83288 is a clinical development candidate for the treatment of severe malaria” (Nature Communications, 2017)
≈ marks a conversion by molar mass, not a printed value. Like-named read-outs stand apart in the source and are kept apart here.

What was measured:
[1] = test system: P. falciparum strain 3D7; assay: Growth inhibition assay; format: cell-based; settings: Plasmodium falciparum
[2] = test system: P. falciparum strain K1; assay: microbe, parasite or virus in culture; format: cell-based; settings: Plasmodium falciparum
[3] = test system: P. falciparum strain Thai19; assay: Growth inhibition assay; format: cell-based; settings: Plasmodium falciparum
[4] = test system: P. falciparum strain FCR3; assay: Growth inhibition assay; format: cell-based; settings: Plasmodium falciparum
[5] = test system: P. falciparum strain D10; assay: Growth inhibition assay; format: cell-based; settings: Plasmodium falciparum
[6] = test system: P. falciparum strain 7G8; assay: microbe, parasite or virus in culture; format: cell-based; settings: Plasmodium falciparum
[7] = test system: P. falciparum strain Dd2; assay: Growth inhibition assay, asexual blood stages; format: cell-based, Plasmodium falciparum
[8] = test system: Dd2 P. falciparum parasites; assay: In vitro parasite reduction ratio assay (Sanz protocol); format: cell-based, Plasmodium falciparum
[9] = Solubility in water; settings: for Solubility in H2O: Supplementary Table 2
[10] = test system: Plasmodium vinckei; assay: Rodent malaria model; format: in vivo; settings: P. vinckei
Excerpt: The two SC compounds were also active in the Plasmodium vinckei rodent malaria model system.

[11] = Plasmodium falciparum, DD2, strain Dd2, Supplementary Table 3
[12] = Supplementary Table 2, read-out: In vitro IC50
[13] = Supplementary Table 8, read-out: In vitro IC50

**Q.** For CCN(CC)Cc1cc(Nc2ccnc3cc(Cl)ccc23)ccc1O [Amodiaquin], which IC50 [1] is on record?
**A.** 8 ± 1 nM

**Q.** And the IC50 [2]?
**A.** 9 ± 1 nM

**Q.** And the IC50 [3]?
**A.** 9 ± 1 nM

**Q.** What about the IC50 [4] of the same molecule?
**A.** 8 ± 0.4 nM

**Q.** And the IC50 [5]?
**A.** 7 ± 2 nM

**Q.** What about the IC50 [6] of the same molecule?
**A.** 7 ± 2 nM

**Q.** And the IC50 [7, 11]?
**A.** 7 ± 1 nM

**Q.** Which IC50 [1] does the source give for C[C@@H]1CC[C@H]2[C@@H](C)C(=O)O[C@@H]3O[C@@]4(C)CC[C@@H]1[C@]32OO4 [Artemisinin] here?
**A.** 8 ± 0.3 nM

**Q.** What about the IC50 [2] of the same molecule?
**A.** 3 ± 1 nM

**Q.** What about the IC50 [3] of the same molecule?
**A.** 3 ± 1 nM

**Q.** And the IC50 [4]?
**A.** 5 ± 1 nM

**Q.** And the “In vitro PCT99.9%” value ([8]; 10 times IC50, Dd2)?
**A.** 21 ± 3 h

**Q.** And the “In vitro lag phase” value ([8]; 10 times IC50, Dd2)?
**A.** zero

**Q.** What about the “In vitro logPRR” value ([8]; 10 times IC50, Dd2, over 48 h) of the same molecule?
**A.** 4.5±2

**Q.** What about the IC50 [5] of the same molecule?
**A.** 9 ± 0.4 nM

**Q.** What about the IC50 [6] of the same molecule?
**A.** 1 ± 0.3 nM

**Q.** And the IC50 [7, 11]?
**A.** 2 ± 0.1 nM

**Q.** With CCN(CC)CCCC(C)Nc1ccnc2cc(Cl)ccc12 (stereo not shown) [Chloroquine] as the molecule, how does the IC50 [1] read?
**A.** 3 nM

**Q.** And the IC50 [2]?
**A.** 70 ± 14 nM

**Q.** And the IC50 [3]?
**A.** 74 ± 17 nM

**Q.** And the IC50 [4]?
**A.** 25 ± 40 nM

**Q.** What about the IC50 [5] of the same molecule?
**A.** 11 ± 30 nM

**Q.** And the IC50 [6]?
**A.** 30 ± 70 nM

**Q.** With OC(c1cc(C(F)(F)F)nc2c(C(F)(F)F)cccc12)C1CCCCN1 (stereo not shown) [Mefloquine] as the molecule, how does the IC50 [1] read?
**A.** 0.04 ± 0.1 nM

**Q.** And the IC50 [2]?
**A.** 0.01 nM

**Q.** And the IC50 [3]?
**A.** 0.01 nM

**Q.** What about the IC50 [4] of the same molecule?
**A.** 0.04 nM

**Q.** What about the IC50 [5] of the same molecule?
**A.** 0.01 nM

**Q.** What about the IC50 [6] of the same molecule?
**A.** 0.2 ± 0.1 nM

**Q.** And the IC50 [7, 11]?
**A.** 0.04 ± 0.1 nM

**Q.** Which IC50 [1] does the source give for CCc1nc(N)nc(N)c1-c1ccc(Cl)cc1 [Pyrimethamine] here?
**A.** 16 ± 3 nM

**Q.** What about the IC50 [2] of the same molecule?
**A.** > 15000 nM

**Q.** What about the IC50 [3] of the same molecule?
**A.** > 15000 nM

**Q.** And the IC50 [4]?
**A.** 31 ± 8 nM

**Q.** What about the IC50 [5] of the same molecule?
**A.** 11 ± 2 nM

**Q.** And the IC50 [6]?
**A.** > 15000 nM

**Q.** With C=C[C@H]1C[N@@]2CC[C@H]1C[C@@H]2[C@@H](O)c1ccnc2ccc(OC)cc12 [Quinidine] as the molecule, how does the IC50 [1] read?
**A.** 14 ± 1 nM

**Q.** And the IC50 [2]?
**A.** 12 ± 3 nM

**Q.** And the IC50 [3]?
**A.** 22 ± 5 nM

**Q.** What about the IC50 [4] of the same molecule?
**A.** 32 ± 6 nM

**Q.** What about the IC50 [5] of the same molecule?
**A.** 16 ± 1 nM

**Q.** And the IC50 [6]?
**A.** 16 ± 4 nM

**Q.** What about the IC50 [7, 11] of the same molecule?
**A.** 15 ± 1 nM

**Q.** Which results are given for C=C[C@H]1C[N@@]2CC[C@H]1C[C@H]2[C@H](O)c1ccnc2ccc(OC)cc12 [Quinine]?
**A.** IC50 [1]: 14 ± 20 nM; IC50 [2]: 46 ± 40 nM; IC50 [3]: 62 ± 10 nM; IC50 [4]: 182 ± 27 nM; IC50 [5]: 58 ± 50 nM; IC50 [6]: 70 ± 17 nM; IC50 [7, 11]: 100 ± 10 nM

**Q.** What does the source list for N=C(N)c1cccc(NC(=O)Nc2ccc(S(=O)(=O)c3ccc(Br)cc3)cc2)c1 [SC48443]?
**A.** Solubility in H2O [9]: 100 µg/mL (≈ 211 µM); IC50 [7, 12]: 63.9 nM

**Q.** Which results are given for N=C(c1cccc(NC(=O)Nc2ccc(S(=O)(=O)c3ccc(Br)cc3)cc2)c1)N1CCC(O)CC1 [SC77215]?
**A.** Outcome: decrease of parasitemia ([10]; 20 mg kg-1 i.p. 1x4 days): 45%; IC50 [7, 13]: 68 nM

**Q.** For N=C(c1cccc(NC(=O)Nc2ccc(S(=O)(=O)NCc3ccc(S(N)(=O)=O)cc3)cc2)c1)N1CCN(CCO)CC1 [SC81452], which “Solubility in H2O” value [9] is on record?
**A.** 32 µg/mL (≈ 52 µM)

**Q.** And the IC50 [7, 12]?
**A.** 100 nM

**Q.** What does the source list for N=C(c1cccc(NC(=O)Nc2ccc(S(=O)(=O)NCc3ccc(S(N)(=O)=O)cc3)cc2)c1)N1CCN(Cc2ccncc2)CC1 [SC82687]?
**A.** Solubility in H2O [9]: 32 µg/mL (≈ 48.3 µM); IC50 [7, 12]: 995 nM

**Q.** Which “Solubility in H2O” value [9] does the source give for CCCCCN1CCN(C(=N)c2cccc(NC(=O)Nc3ccc(S(=O)(=O)NCc4ccc(S(N)(=O)=O)cc4)cc3)c2)CC1 [SC82833] here?
**A.** 100 µg/mL (≈ 156 µM)

**Q.** What about the IC50 [7, 12] of the same molecule?
**A.** 13 nM

**Q.** What does the source list for CCN(CC)CCN(C)C(=N)c1cccc(NC(=O)Nc2ccc(S(=O)(=O)NCc3ccc(S(N)(=O)=O)cc3)cc2)c1 [SC82869]?
**A.** Solubility in H2O [9]: 320 µg/mL (≈ 520 µM); IC50 [7, 12]: 89 nM

**Q.** Which Outcome ([10]; 30 mg kg-1 i.p. 1x4 days) does the source give for N=C(c1cccc(NC(=O)Nc2ccc(S(=O)(=O)NCc3ccc(S(N)(=O)=O)cc3)cc2)c1)N1CCNCC1 [SC82904] here?
**A.** no complete clearance

**Q.** And the “Outcome: decrease of parasitemia” value ([10]; 30 mg kg-1 i.p. 1x4 days)?
**A.** > 80%

**Q.** And the IC50 [7, 13]?
**A.** 99 nM

**Q.** What does the source list for CC(=O)N1CCN(C(=N)c2cccc(NC(=O)Nc3ccc(S(=O)(=O)NCc4ccc(S(N)(=O)=O)cc4)cc3)c2)CC1 [SC83287]?
**A.** Solubility in H2O [9]: 10 µg/mL (≈ 16.3 µM); IC50 [7, 12]: 5000 nM

**Q.** With CCCCC(=O)N1CCN(C(=N)c2cccc(NC(=O)Nc3ccc(S(=O)(=O)NCc4ccc(S(N)(=O)=O)cc4)cc3)c2)CC1 [SC83290] as the molecule, how does the Outcome ([10]; 30 mg kg-1 i.p. 1x4 days) read?
**A.** no complete clearance

**Q.** And the “Outcome: decrease of parasitemia” value ([10]; 30 mg kg-1 i.p. 1x4 days)?
**A.** > 90%

**Q.** What about the “Solubility in H2O” value [9] of the same molecule?
**A.** > 1000 µg/mL

**Q.** What about the IC50 [7, 12] of the same molecule?
**A.** 40 nM

**Q.** With N=C(N)c1cccc(NC(=O)Nc2cccc(C(=N)N)c2)c1 [amicarbalide, reference compound] as the molecule, how does the solubility ([9]; water) read?
**A.** 100 µg/mL (≈ 337 µM)

**Q.** What about the IC50 ([7]; Plasmodium falciparum, DD2, read-out: In vitro IC50, Supplementary Table 2) of the same molecule?
**A.** 10 nM
